Conditions: Liquid, Vibrating tube method

CC(C)CCCCCCCOC(=O)c1ccccc1C(=O)OCCCCCCCC(C)C
Conditions	mass density [kg/m3]
283.15 K, 100 kPa	974.5
283.15 K, 200 kPa	974.5
283.15 K, 400 kPa	974.6
283.15 K, 600 kPa	974.7
283.15 K, 800 kPa	974.9
283.15 K, 1010 kPa	975
283.15 K, 2000 kPa	975.5
283.15 K, 3020 kPa	976
283.15 K, 4000 kPa	976.6
283.15 K, 5000 kPa	977.1
283.15 K, 6000 kPa	977.7
283.15 K, 6980 kPa	978.2
283.15 K, 8010 kPa	978.7
283.15 K, 9020 kPa	979.3
283.15 K, 10030 kPa	979.8
283.15 K, 15000 kPa	982.4
283.15 K, 19970 kPa	985
283.15 K, 25030 kPa	987.3
283.15 K, 29980 kPa	989.8
283.15 K, 35030 kPa	992.1
283.15 K, 40000 kPa	994.5
283.15 K, 45030 kPa	996.6
283.15 K, 49980 kPa	998.8
283.15 K, 55030 kPa	1000.9
283.15 K, 59990 kPa	1002.6
283.15 K, 64990 kPa	1005.1
288.15 K, 100 kPa	970.7
288.15 K, 200 kPa	970.8
288.15 K, 420 kPa	970.9
288.15 K, 600 kPa	971
288.15 K, 790 kPa	971.1
288.15 K, 1000 kPa	971.2
288.15 K, 1990 kPa	971.7
288.15 K, 3020 kPa	972.3
288.15 K, 4010 kPa	972.9
288.15 K, 5000 kPa	973.4
288.15 K, 6010 kPa	974
288.15 K, 7020 kPa	974.5
288.15 K, 7980 kPa	975
288.15 K, 9000 kPa	975.5
288.15 K, 10000 kPa	976.1
288.15 K, 14990 kPa	978.7
288.15 K, 19970 kPa	981.4
288.15 K, 25000 kPa	983.8
288.15 K, 30000 kPa	986.4
288.15 K, 34990 kPa	988.8
288.15 K, 40020 kPa	991.1
288.15 K, 45000 kPa	993.3
288.15 K, 49980 kPa	995.7
288.15 K, 54980 kPa	997.7
288.15 K, 60000 kPa	999.9
288.15 K, 65000 kPa	1002
293.15 K, 100 kPa	967
293.15 K, 200 kPa	967.1
293.15 K, 400 kPa	967.2
293.15 K, 630 kPa	967.3
293.15 K, 790 kPa	967.4
293.15 K, 1000 kPa	967.5
293.15 K, 2010 kPa	968.1
293.15 K, 3020 kPa	968.7
293.15 K, 4020 kPa	969.2
293.15 K, 4970 kPa	969.8
293.15 K, 5980 kPa	970.3
293.15 K, 7020 kPa	970.9
293.15 K, 8000 kPa	971.5
293.15 K, 9020 kPa	972
293.15 K, 10010 kPa	972.6
293.15 K, 15010 kPa	975.2
293.15 K, 20000 kPa	977.9
293.15 K, 25030 kPa	980.5
293.15 K, 30020 kPa	983
293.15 K, 35030 kPa	985.4
293.15 K, 40010 kPa	987.8
293.15 K, 44980 kPa	990.1
293.15 K, 50020 kPa	992.4
293.15 K, 55020 kPa	994.6
293.15 K, 60020 kPa	996.8
293.15 K, 65000 kPa	998.9
298.15 K, 100 kPa	963.4
298.15 K, 200 kPa	963.4
298.15 K, 410 kPa	963.6
298.15 K, 620 kPa	963.7
298.15 K, 820 kPa	963.8
298.15 K, 1000 kPa	963.9
298.15 K, 2020 kPa	964.5
298.15 K, 3040 kPa	965
298.15 K, 4030 kPa	965.7
298.15 K, 4980 kPa	966.2
298.15 K, 6070 kPa	966.8
298.15 K, 7020 kPa	967.3
298.15 K, 8040 kPa	967.9
298.15 K, 9040 kPa	968.5
298.15 K, 10030 kPa	969
298.15 K, 15010 kPa	971.7
298.15 K, 19990 kPa	974.4
298.15 K, 25000 kPa	977
298.15 K, 30020 kPa	979.6
298.15 K, 35000 kPa	982.1
298.15 K, 40020 kPa	984.5
298.15 K, 44970 kPa	986.9
298.15 K, 49990 kPa	989.2
298.15 K, 54970 kPa	991.4
298.15 K, 60000 kPa	993.7
298.15 K, 65020 kPa	995.8
303.15 K, 100 kPa	959.7
303.15 K, 200 kPa	959.8
303.15 K, 400 kPa	959.9
303.15 K, 580 kPa	960
303.15 K, 800 kPa	960.2
303.15 K, 1000 kPa	960.3
303.15 K, 2000 kPa	960.9
303.15 K, 2990 kPa	961.4
303.15 K, 4000 kPa	962
303.15 K, 5000 kPa	962.6
303.15 K, 6000 kPa	963.2
303.15 K, 7000 kPa	963.8
303.15 K, 7980 kPa	964.3
303.15 K, 9000 kPa	964.9
303.15 K, 10020 kPa	965.5
303.15 K, 14970 kPa	968.2
303.15 K, 20010 kPa	971
303.15 K, 25030 kPa	973.6
303.15 K, 30020 kPa	976.3
303.15 K, 35000 kPa	978.8
303.15 K, 40000 kPa	981.2
303.15 K, 45000 kPa	983.6
303.15 K, 50010 kPa	986
303.15 K, 54980 kPa	988.3
303.15 K, 60000 kPa	990.5
303.15 K, 64990 kPa	992.7
308.15 K, 100 kPa	956.2
308.15 K, 200 kPa	956.2
308.15 K, 410 kPa	956.4
308.15 K, 610 kPa	956.5
308.15 K, 800 kPa	956.6
308.15 K, 1000 kPa	956.7
308.15 K, 2010 kPa	957.3
308.15 K, 3020 kPa	957.9
308.15 K, 4000 kPa	958.5
308.15 K, 5000 kPa	959.1
308.15 K, 6000 kPa	959.7
308.15 K, 7020 kPa	960.3
308.15 K, 8000 kPa	960.8
308.15 K, 9020 kPa	961.4
308.15 K, 10000 kPa	962
308.15 K, 15010 kPa	964.8
308.15 K, 19990 kPa	967.6
308.15 K, 25000 kPa	970.3
308.15 K, 30010 kPa	973
308.15 K, 35000 kPa	975.5
308.15 K, 39990 kPa	978
308.15 K, 44990 kPa	980.4
308.15 K, 50010 kPa	982.9
308.15 K, 55000 kPa	985.2
308.15 K, 60000 kPa	987.4
308.15 K, 65000 kPa	989.7

Reference: the NIST ThermoML archive (doi:10.1021/je1001413)
